Results on five compounds are retold here after ChEMBL document CHEMBL1126257, “Fluoronaphthyridines and -quinolones as antibacterial agents. 5. Synthesis and antimicrobial activity of chiral 1-tert-butyl-6-fluoro-7-substituted-naphthyridones” (J Med Chem, 1992).

In brackets after ≈: the same amount, converted by molar mass.

The first data set has as its system Morganella morganii. The data set is described as follows: In vitro antibacterial activity against Morganella morganii A 15153. Type of data set: functional. Particulars: Morganella morganii; read-out: MIC.
`CN[C@@H]1CCN(c2nc3c(cc2F)c(=O)c(C(=O)O)cn3C(C)(C)C)C1`: the MIC worked out at 0.5 µg/mL (≈ 1.38 µM).

On to `CN(C)C1CCN(c2nc3c(cc2F)c(=O)c(C(=O)O)cn3C(C)(C)C)C1` (centres undefined), for which the MIC was 0.5 µg/mL (≈ 1.33 µM).

Regarding `CN[C@H]1CCN(c2nc3c(cc2F)c(=O)c(C(=O)O)cn3C(C)(C)C)C1`, the MIC was determined as 0.25 µg/mL (≈ 0.69 µM).

Turning to `O=C(O)c1cn(C2CC2)c2cc(N3CCNCC3)c(F)cc2c1=O` [CIPROFLOXACIN], the MIC came out at 0.06 µg/mL (≈ 0.181 µM).

The next data set concerns Staphylococcus aureus. The data set is described as follows: animal or person. Particulars: in Mus musculus, po, read-out: PD50.
Description: In vivo potency on systemic infection caused by Staphylococcus aureus A9537 after oral administration to mice expressed as median protective dose.
`CN[C@H]1CCN(c2nc3c(cc2F)c(=O)c(C(=O)O)cn3C(C)(C)C)C1`: the ED50 came out at 0.31 mg/kg.

In the case of `O=C(O)c1cn(C2CC2)c2cc(N3CCNCC3)c(F)cc2c1=O` [CIPROFLOXACIN], the ED50 was 4 mg/kg.

The subject of the next data set is Klebsiella pneumoniae. The data set is described as follows: In vitro antibacterial activity against Klebsiella pneumoniae A 9664. Type of data set: functional. Particulars: Klebsiella pneumoniae; read-out: MIC.
`CN(C)[C@H]1CCN(c2nc3c(cc2F)c(=O)c(C(=O)O)cn3C(C)(C)C)C1`: the MIC stood at 0.06 µg/mL (≈ 0.159 µM).

Take `CN[C@@H]1CCN(c2nc3c(cc2F)c(=O)c(C(=O)O)cn3C(C)(C)C)C1`: the MIC is 0.13 µg/mL (≈ 0.359 µM).

As to `CN(C)C1CCN(c2nc3c(cc2F)c(=O)c(C(=O)O)cn3C(C)(C)C)C1` (centres undefined), the MIC came to 0.13 µg/mL (≈ 0.345 µM).

For the compound `CN[C@H]1CCN(c2nc3c(cc2F)c(=O)c(C(=O)O)cn3C(C)(C)C)C1`, the MIC is 0.06 µg/mL (≈ 0.166 µM).

In the case of `O=C(O)c1cn(C2CC2)c2cc(N3CCNCC3)c(F)cc2c1=O` [CIPROFLOXACIN], the MIC turned out to be 0.06 µg/mL (≈ 0.181 µM).

For another data set, the system named is Enterococcus faecium. The data set is described as follows: In vitro antibacterial activity against Enterococcus faecium A 24885. Type of data set: functional. The following applies: Enterococcus faecium; read-out: MIC.
For `CN(C)[C@H]1CCN(c2nc3c(cc2F)c(=O)c(C(=O)O)cn3C(C)(C)C)C1`, the MIC amounted to 4 µg/mL (≈ 10.6 µM).

As for `CN[C@@H]1CCN(c2nc3c(cc2F)c(=O)c(C(=O)O)cn3C(C)(C)C)C1`, the MIC was found to be 8 µg/mL (≈ 22.1 µM).

As to `CN(C)C1CCN(c2nc3c(cc2F)c(=O)c(C(=O)O)cn3C(C)(C)C)C1` (centres undefined), the MIC stood at 8 µg/mL (≈ 21.3 µM).

For the compound `CN[C@H]1CCN(c2nc3c(cc2F)c(=O)c(C(=O)O)cn3C(C)(C)C)C1`, the minimum inhibitory concentration (MIC) amounted to 2 µg/mL (≈ 5.52 µM).

With `O=C(O)c1cn(C2CC2)c2cc(N3CCNCC3)c(F)cc2c1=O` [CIPROFLOXACIN], the minimal inhibitory concentration (MIC) worked out at 4 µg/mL (≈ 12.1 µM).

The subject of another data set is Pseudomonas aeruginosa. The data set is described as follows: (§1) In vivo potency on systemic infection caused by after oral administration to mice expressed as median protective dose. Type of data set: functional. Particulars: read-out: PD50.
Regarding `CN[C@H]1CCN(c2nc3c(cc2F)c(=O)c(C(=O)O)cn3C(C)(C)C)C1`, the ED50 is 6.1 mg/kg.

Regarding `O=C(O)c1cn(C2CC2)c2cc(N3CCNCC3)c(F)cc2c1=O` [CIPROFLOXACIN], the ED50 was found to be 5 mg/kg.

The subject of the next data set is Klebsiella pneumoniae. The description is as §1. Type of data set: functional. The following applies: read-out: PD50.
Consider `CN[C@H]1CCN(c2nc3c(cc2F)c(=O)c(C(=O)O)cn3C(C)(C)C)C1`, for which the ED50 amounted to 2.6 mg/kg.

For the compound `O=C(O)c1cn(C2CC2)c2cc(N3CCNCC3)c(F)cc2c1=O` [CIPROFLOXACIN], the ED50 was 1.5 mg/kg.

Another data set has as its system Escherichia coli. Described as §1. The format is functional. Particulars: read-out: PD50.
Turning to `CN[C@H]1CCN(c2nc3c(cc2F)c(=O)c(C(=O)O)cn3C(C)(C)C)C1`, the ED50 stood at 1.2 mg/kg.

On to `O=C(O)c1cn(C2CC2)c2cc(N3CCNCC3)c(F)cc2c1=O` [CIPROFLOXACIN], for which the ED50 was found to be 0.7 mg/kg.

Another data set relates to Enterobacter cloacae. The experiment in a line: In vitro antibacterial activity against Enterobacter cloacae A 9656. The following applies: Enterobacter cloacae; read-out: MIC. Type of data set: functional.
For the compound `CN(C)[C@H]1CCN(c2nc3c(cc2F)c(=O)c(C(=O)O)cn3C(C)(C)C)C1`, the MIC came out at 0.03 µg/mL (≈ 0.0797 µM).

Turning to `CN[C@@H]1CCN(c2nc3c(cc2F)c(=O)c(C(=O)O)cn3C(C)(C)C)C1`, the MIC worked out at 0.13 µg/mL (≈ 0.359 µM).

In the case of `CN(C)C1CCN(c2nc3c(cc2F)c(=O)c(C(=O)O)cn3C(C)(C)C)C1` (centres undefined), the MIC was 1 µg/mL (≈ 2.66 µM).

Regarding `CN[C@H]1CCN(c2nc3c(cc2F)c(=O)c(C(=O)O)cn3C(C)(C)C)C1`, the MIC was determined as 0.06 µg/mL (≈ 0.166 µM).

A further data set deals with Escherichia coli. The data set is described as follows: In vitro antibacterial activity against Escherichia coli A 15119. Type of data set: functional. Particulars: Escherichia coli; read-out: MIC.
For `CN(C)[C@H]1CCN(c2nc3c(cc2F)c(=O)c(C(=O)O)cn3C(C)(C)C)C1`, the MIC was 0.015 µg/mL (≈ 0.0398 µM).

Turning to `CN[C@@H]1CCN(c2nc3c(cc2F)c(=O)c(C(=O)O)cn3C(C)(C)C)C1`, the MIC turned out to be 0.06 µg/mL (≈ 0.166 µM).

For `CN(C)C1CCN(c2nc3c(cc2F)c(=O)c(C(=O)O)cn3C(C)(C)C)C1` (centres undefined), the minimal inhibitory concentration (MIC) turned out to be 0.25 µg/mL (≈ 0.664 µM).

With `CN[C@H]1CCN(c2nc3c(cc2F)c(=O)c(C(=O)O)cn3C(C)(C)C)C1`, the MIC stood at 0.03 µg/mL (≈ 0.0828 µM).

System in a further data set: not listed separately
The experiment in a line: in vivo. The following applies: mouse, po, 50 mg/kg.
In turn, `O=C(O)c1cn(C2CC2)c2cc(N3CCNCC3)c(F)cc2c1=O` [CIPROFLOXACIN] returned a maximum concentration (Cmax) of 5900 ng/mL.

Another data set deals with Pseudomonas aeruginosa. The data set is described as follows: In vitro antibacterial activity against Pseudomonas aeruginosa A 9243. The format is functional. The following applies: Pseudomonas aeruginosa; read-out: MIC.
With `CN(C)[C@H]1CCN(c2nc3c(cc2F)c(=O)c(C(=O)O)cn3C(C)(C)C)C1`, the minimal inhibitory concentration (MIC) came to 2 µg/mL (≈ 5.31 µM).

Consider `CN[C@@H]1CCN(c2nc3c(cc2F)c(=O)c(C(=O)O)cn3C(C)(C)C)C1`, for which the MIC stood at 1 µg/mL (≈ 2.76 µM).

Take `CN(C)C1CCN(c2nc3c(cc2F)c(=O)c(C(=O)O)cn3C(C)(C)C)C1` (centres undefined): the minimum inhibitory concentration (MIC) amounted to 1 µg/mL (≈ 2.66 µM).

On to `CN[C@H]1CCN(c2nc3c(cc2F)c(=O)c(C(=O)O)cn3C(C)(C)C)C1`, for which the MIC is 0.25 µg/mL (≈ 0.69 µM).

Another data set deals with Staphylococcus aureus. The experiment in a line: In vitro antibacterial activity against Staphylococcus aureus A9537. Type of data set: functional. Particulars: Staphylococcus aureus; read-out: MIC.
Consider `CN(C)[C@H]1CCN(c2nc3c(cc2F)c(=O)c(C(=O)O)cn3C(C)(C)C)C1`, for which the MIC amounted to 0.03 µg/mL (≈ 0.0797 µM).

Turning to `CN[C@@H]1CCN(c2nc3c(cc2F)c(=O)c(C(=O)O)cn3C(C)(C)C)C1`, the MIC was 0.03 µg/mL (≈ 0.0828 µM).

`CN(C)C1CCN(c2nc3c(cc2F)c(=O)c(C(=O)O)cn3C(C)(C)C)C1` (centres undefined): the MIC is 0.03 µg/mL (≈ 0.0797 µM).

Consider `CN[C@H]1CCN(c2nc3c(cc2F)c(=O)c(C(=O)O)cn3C(C)(C)C)C1`, for which the MIC came out at 0.015 µg/mL (≈ 0.0414 µM).

`O=C(O)c1cn(C2CC2)c2cc(N3CCNCC3)c(F)cc2c1=O` [CIPROFLOXACIN]: the MIC was 0.06 µg/mL (≈ 0.181 µM).

A further data set relates to Enterococcus faecalis. The experiment in a line: In vitro antibacterial activity against Enterococcus faecalis A9809. Type of data set: functional. The following applies: Enterococcus faecalis; read-out: MIC.
`CN(C)[C@H]1CCN(c2nc3c(cc2F)c(=O)c(C(=O)O)cn3C(C)(C)C)C1`: the minimum inhibitory concentration (MIC) was determined as 0.5 µg/mL (≈ 1.33 µM).

In the case of `CN[C@@H]1CCN(c2nc3c(cc2F)c(=O)c(C(=O)O)cn3C(C)(C)C)C1`, the MIC worked out at 1 µg/mL (≈ 2.76 µM).

As to `CN(C)C1CCN(c2nc3c(cc2F)c(=O)c(C(=O)O)cn3C(C)(C)C)C1` (centres undefined), the minimal inhibitory concentration (MIC) stood at 1 µg/mL (≈ 2.66 µM).

As to `CN[C@H]1CCN(c2nc3c(cc2F)c(=O)c(C(=O)O)cn3C(C)(C)C)C1`, the MIC turned out to be 1 µg/mL (≈ 2.76 µM).

The next data set relates to Serratia marcescens. The experiment in a line: In vitro antibacterial activity against Serratia marcescens A 20019. The format is functional. Particulars: Serratia marcescens; read-out: MIC.
Regarding `CN(C)[C@H]1CCN(c2nc3c(cc2F)c(=O)c(C(=O)O)cn3C(C)(C)C)C1`, the minimum inhibitory concentration (MIC) came to 1 µg/mL (≈ 2.66 µM).

`CN[C@@H]1CCN(c2nc3c(cc2F)c(=O)c(C(=O)O)cn3C(C)(C)C)C1`: the MIC is 0.5 µg/mL (≈ 1.38 µM).

In the case of `CN(C)C1CCN(c2nc3c(cc2F)c(=O)c(C(=O)O)cn3C(C)(C)C)C1` (centres undefined), the MIC was 1 µg/mL (≈ 2.66 µM).

With `CN[C@H]1CCN(c2nc3c(cc2F)c(=O)c(C(=O)O)cn3C(C)(C)C)C1`, the minimal inhibitory concentration (MIC) turned out to be 0.25 µg/mL (≈ 0.69 µM).

For the compound `O=C(O)c1cn(C2CC2)c2cc(N3CCNCC3)c(F)cc2c1=O` [CIPROFLOXACIN], the minimal inhibitory concentration (MIC) was found to be 0.03 µg/mL (≈ 0.0905 µM).

Usually MIC stands for the smallest concentration in the dilution series that meets the test's criterion for growth inhibition. Usually Cmax stands for the maximum level reached in the sampled fluid or tissue.
